The values below come from article PMC4481117 (Molecular Pain, 2015).

For one assay, the system named is wild-type HEK293 cells. Nature of the assay: Adhesion of wild-type HEK293 cells to immobilized peptide. Format: cell-based, Human. Conditions: coated wells, calcein-labeled cells, 30 min at 37 °C. As to the method: Fig. 3 Adhesion of Mac-1-expressing cells to Dyn A and Dyn B. a, Mac-1-expressing and wild-type HEK293 cells were labeled with calcein and 5x10^4 cells were added to the wells coated with different concentrations of the Dyn A. After 30 min at 37 °C, nonadherent cells were removed and fluorescence was measured. The data shown are means of triplicate determinations, and error bars represent S.E. The figure is representative of 8 experiments. b , adhesion of HEK293 cells expressing Mac-1, LFA and the I-less form of Mac-1 to Dyn A and Dyn B immobilized at 10 μM was determined as described in A. c, calcein-labeled Mac-1-HEK293 cells were preincubated without or with 10 μg/ml of anti-αM mAb 44a or 1 μg/ml NIF for 15 minutes. For testing the role of glucosaminoglycans in cell adhesion, dynorphin A-coated wells were preincubated with 100 μl of 10 μg/ml of chondroitin sulfate A, chondroitin sulfate B and heparin. […]
Adhesion assays were performed essentially as described previously. […] Fluorescence was measured in a CytoFluorII fluorescence plate reader (Perceptive Biosystems, Framingham, MA). […] After aspirating the solution, labeled cells were added and cell adhesion was analyzed as above.

In another assay the test system is Mac-1-HEK293 cells. Nature of the assay: Translocation of Dyn A into Mac-1-HEK293 cells (immunolabeling). The format is cell-based, Human. Conditions: 40 min at 37 °C. As to the method:
Fig. 5 Translocation of Dyn A into cells. Mac-1-expressing (a) and wild-type HEK293 (b) cells were incubated with 20 μM and 100 μM of Dyn A for 40 min at 37 °C, fixed, permeabilized and incubated with anti-dynorphin antibodies followed by Alexa Fluor 488-conjugated secondary goat anti-rabbit antibodies. No labeling was detected in the absence of primary antibody. c, Enlarged images of Dyn A-accumulated Mac-1- and wild-type HEK cells shown in a and b. d, Quantification of fluorescent cells shown in a and b
Mac-1-HEK 293 and wild-type HEK 293 cells were incubated for 10 min with different concentrations (0–100 μM) of Dyn A and allowed to adhere to glass coverslips coated with poly-Lysine for 30 min. Adherent cells were fixed in 2 % paraformaldehyde solution, permeabilized with 0.1 % Tween-20, and blocked with 10 % normal goat serum plus 1 % BSA. The coverslips were incubated with 5 μg/ml polyclonal anti-Dyn A antibody followed by an secondary goat anti-rabbit antibody conjugated to Alexa Fluor 488 (1:1000). Images were taken using a Leica DM 4000B microscope (Leica, Buffalo Grove, IL).

For assay [1], the system named is mouse peritoneal macrophages. Conditions: cited from earlier work. An excerpt: Apart from their effects on κ-opioid receptors on neurons, Dyn A exerts numerous effects on leukocytes, particularly myeloid cells. […] Similar to other cationic peptides, Dyn A can exert some effects essential for host defense.

With `CC[C@H](C)[C@H](NC(=O)[C@H](CCCNC(=N)N)NC(=O)[C@H](CCCNC(=N)N)NC(=O)[C@H](CC(C)C)NC(=O)[C@H](Cc1ccccc1)NC(=O)CNC(=O)CNC(=O)[C@@H](N)Cc1ccc(O)cc1)C(=O)N[C@@H](CCCNC(=N)N)C(=O)N1CCC[C@H]1C(=O)N[C@@H](CCCCN)C(=O)N[C@@H](CC(C)C)C(=O)N[C@@H](CCCCN)C(=O)N[C@@H](Cc1c[nH]c2ccccc12)C(=O)N[C@@H](CC(=O)O)C(=O)N[C@@H](CC(N)=O)C(=O)N[C@@H](CCC(N)=O)C(=O)O` [Dyn A], the “Adhesion of wild-type HEK293 cells (in words)” value with wild-type HEK293 cells is given as “adhered only slightly”. Moreover, the “Localization of Dyn A in Mac-1-HEK293 cells” value in the assay on Mac-1-HEK293 cells (20 μM Dyn A) is given as “primarily associated with the cell periphery”. Moreover, in the assay with Mac-1-HEK293 cells (Dyn A, anti-dynorphin antibodies), the “Number of Mac-1-HEK293 cells accumulating Dyn A vs wild-type” value was “significantly smaller number of Mac-1-HEK293 cells accumulated Dyn A”. In addition, the “Phagocytosis by mouse peritoneal macrophages” value in assay [1] is “enhance phagocytosis by mouse peritoneal macrophages”.
